Data on 21 molecules can be found in patent publication US20240425490A1, “SULFAMIDE RIBONUCLEOTIDE REDUCTASE (RNR) INHIBITORS AND USES THEREOF” (Boundless Bio, Inc., priority 2021, published 2024).

The structures appear in SMILES notation.

The target in the assay is T1, RNR (RNR1:RNR2 1:1) (Homo sapiens, UniProt P23921).
T1 sequence (P23921 1-792): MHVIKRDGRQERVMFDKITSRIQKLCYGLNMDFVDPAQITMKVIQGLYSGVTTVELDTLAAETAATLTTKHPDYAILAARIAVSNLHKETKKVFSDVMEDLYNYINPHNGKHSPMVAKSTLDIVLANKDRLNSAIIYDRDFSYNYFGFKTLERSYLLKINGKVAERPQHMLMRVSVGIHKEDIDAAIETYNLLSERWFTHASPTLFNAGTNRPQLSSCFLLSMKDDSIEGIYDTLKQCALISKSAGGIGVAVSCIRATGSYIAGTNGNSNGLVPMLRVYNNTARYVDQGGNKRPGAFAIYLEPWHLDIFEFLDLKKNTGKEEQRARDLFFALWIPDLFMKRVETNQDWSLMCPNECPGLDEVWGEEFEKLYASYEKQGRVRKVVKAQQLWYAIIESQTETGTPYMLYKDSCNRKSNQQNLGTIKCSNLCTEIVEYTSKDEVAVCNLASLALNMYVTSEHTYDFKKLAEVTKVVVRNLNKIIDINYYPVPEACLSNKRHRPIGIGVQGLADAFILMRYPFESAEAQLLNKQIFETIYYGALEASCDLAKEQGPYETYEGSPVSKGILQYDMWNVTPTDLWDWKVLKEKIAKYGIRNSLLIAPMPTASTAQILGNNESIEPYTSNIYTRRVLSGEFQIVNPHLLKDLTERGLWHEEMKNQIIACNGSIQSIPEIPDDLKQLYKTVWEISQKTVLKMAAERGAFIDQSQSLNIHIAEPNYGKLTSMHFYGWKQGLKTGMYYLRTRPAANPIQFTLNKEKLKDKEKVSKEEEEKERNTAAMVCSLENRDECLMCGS
Put plainly: RNR enzyme activity, rapid-fire mass spectrometry (RFMS) assay. The class given is biochemical. The note with it: RNR 50 nM, CDP 5 μM, ATP 1 mM, 37° C., 45 min, compounds screened up to 50 μM, read-out: RF/MS IC50. As to the method:
A rapid-fire mass spectrometry (RFMS) assay was used to assess RNR enzyme activity using a 384 well plate and a robotic platform.
The plate layout included two validated reference compounds (Triapine (3-AP) and Hydroxyurea (HU)): • A dose response in duplicate; top concentration: 5 μM (3-AP) and 250 μM (HU), semi-log dilutions. • Spike wells in triplicate randomly spotted at four concentrations: • 250 μM, 100 μM, 30 μM and 2 μM for HU • 5 μM, 2 μM, 0.6 μM and 0.04 μM for 3-AP
First, the multidrop pipes were saturated for 30 minutes with enzymatic solution. Then 30 μL of Stop solution was distributed in column 24. Next, 15 μL of enzyme was distributed in column 1 to 24. Next, a pre-incubation step of 15 minutes at room temperature occurred, followed by distribution of 15 μL of substrate solution (column 1 to 24). Next, the plate was incubated for 45 minutes at 37° C. 30 μL of Stop solution was distributed to columns 1 to 23.
The final parameters for the enzyme reactions were: • Incubation: 37° C., 45 min • [CDP]: 5 μM; [ATP]: 1 mM; [NADPH]: No • [RNR] final: 50 nM with 1:1 (RNR1:RNR2) ratio • Final volume: 30 μL • Stop solution: 6% HCOOH containing 2 μM of 15
Consider `Cc1ccc(F)c(C(C)[C@H](NS(=O)(=O)N2CCCCC2)c2n[nH]c(=O)o2)c1C` (stereo partly drawn) [Example 138, N-((1S)-2-(6-fluoro-2,3-dimethylphenyl)-1-(5-oxo-4,5-dihydro-1,3,4-oxadiazol-2-yl)propyl)piperidine-1-sulfonamide], for which the IC50 was in the range of 0.1 to 1 µM.

Consider `Cc1ccc(F)c([C@H](C)[C@H](NS(=O)(=O)N2CCCC(C(C)O)C2)c2n[nH]c(=O)o2)c1C` (mixture of isomers) [Example 28, rac-N-((1R,2R)-2-(6-fluoro-2,3-dimethylphenyl)-1-(5-oxo-4,5-dihydro-1,3,4-oxadiazol-2-yl)propyl)-3-(1-hydroxyethyl)piperidine-1-sulfonamide], for which the IC50 lay within 10 to 100 µM. As for `Cc1ccc(F)c(C(C)[C@H](NS(=O)(=O)N2CCN(C)CC2)c2n[nH]c(=O)o2)c1C` (stereo partly drawn) [Example 139, N-((1S)-2-(6-fluoro-2,3-dimethylphenyl)-1-(5-oxo-4,5-dihydro-1,3,4-oxadiazol-2-yl)propyl)-4-methylpiperazine-1-sulfonamide], the IC50 was in the range of 0.1 to 1 µM. With `Cc1ccc(F)c([C@H](C)[C@H](NS(=O)(=O)N2CCC(c3c[nH]c4ccccc34)CC2)c2n[nH]c(=O)o2)c1C` [Example 69, N-((1S,2S)-2-(6-fluoro-2,3-dimethylphenyl)-1-(5-oxo-4,5-dihydro-1,3,4-oxadiazol-2-yl)propyl)-4-(1H-indol-3-yl)piperidine-1-sulfonamide], the IC50 fell in the range of 10 to 100 µM. With `Cc1ccc(F)c([C@H](C)[C@H](NS(=O)(=O)N2CCC3(CCCN(C)C3)CC2)c2n[nH]c(=O)o2)c1C` [Example 84, N-((1S,2S)-2-(6-fluoro-2,3-dimethylphenyl)-1-(5-oxo-4,5-dihydro-1,3,4-oxadiazol-2-yl)propyl)-2-methyl-2,9-diazaspiro[5.5]undecane-9-sulfonamide], the IC50 was in the range of 10 to 100 µM. On to `Cc1ccc(F)c([C@H](C)[C@H](NS(=O)(=O)N2CCC3(CC2)OCCCO3)c2n[nH]c(=O)o2)c1C` [Example 86, N-((1S,2S)-2-(6-fluoro-2,3-dimethylphenyl)-1-(5-oxo-4,5-dihydro-1,3,4-oxadiazol-2-yl)propyl)-1,5-dioxa-9-azaspiro[5.5]undecane-9-sulfonamide], for which the IC50 fell in the range of 1 to 10 µM. As for `Cc1ccc(F)c([C@@H](C)[C@H](NS(=O)(=O)N2CCCCC2C(=O)O)c2n[nH]c(=O)o2)c1C` (stereo partly drawn) [Example 13, 1-(N-((1S,2R)-2-(6-fluoro-2,3-dimethylphenyl)-1-(5-oxo-4,5-dihydro-1,3,4-oxadiazol-2-yl)propyl)sulfamoyl)piperidine-2-carboxylic acid], the IC50 lay in the range of 10 to 100 µM.

Consider `COC(=O)C1CC12CCN(S(=O)(=O)N[C@H](c1n[nH]c(=O)o1)C(C)c1c(F)ccc(C)c1C)CC2` (stereo partly drawn) [Example 92, methyl 6-(N-((1S)-2-(6-fluoro-2,3-dimethylphenyl)-1-(5-oxo-4,5-dihydro-1,3,4-oxadiazol-2-yl)propyl)sulfamoyl)-6-azaspiro[2.5]octane-1-carboxylate], for which the IC50 fell in the range of 0.1 to 1 µM. The value for `COCC1CCN(S(=O)(=O)N[C@H](c2n[nH]c(=O)o2)[C@@H](C)c2c(F)ccc(C)c2C)CC1` [Example 128, N-((1S,2S)-2-(6-fluoro-2,3-dimethylphenyl)-1-(5-oxo-4,5-dihydro-1,3,4-oxadiazol-2-yl)propyl)-4-(methoxymethyl)piperidine-1-sulfonamide] was 1 to 10 µM. Consider `Cc1ccc(F)c(C(C)[C@H](NS(=O)(=O)N2CCC(NC(=O)C(C)(C)C)CC2)c2n[nH]c(=O)o2)c1C` (stereo partly drawn) [Example 75, N-(1-(N-((1S)-2-(6-fluoro-2,3-dimethylphenyl)-1-(5-oxo-4,5-dihydro-1,3,4-oxadiazol-2-yl)propyl)sulfamoyl)piperidin-4-yl)pivalamide], for which the IC50 is 1 to 10 µM. As for `Cc1ccc(F)c(C(C)[C@H](NS(=O)(=O)N2CCCC(C(C)C)C2)c2n[nH]c(=O)o2)c1C` (stereo partly drawn) [Example 24, N-((1S)-2-(6-fluoro-2,3-dimethylphenyl)-1-(5-oxo-4,5-dihydro-1,3,4-oxadiazol-2-yl)propyl)-3-isopropylpiperidine-1-sulfonamide], the IC50 fell in the range of 0.1 to 1 µM. On to `Cc1ccc(F)c([C@@H](C)[C@H](NS(=O)(=O)N2CC3C(C2)C3(C)C)c2n[nH]c(=O)o2)c1C` (stereo partly drawn) [Example 102, N-((1S,2R)-2-(6-fluoro-2,3-dimethylphenyl)-1-(5-oxo-4,5-dihydro-1,3,4-oxadiazol-2-yl)propyl)-6,6-dimethyl-3-azabicyclo[3.1.0]hexane-3-sulfonamide], for which the IC50 fell in the range of 0.1 to 1 µM.

As to `Cc1ccc(F)c([C@H](C)[C@H](NS(=O)(=O)N2CCC(Cl)CC2)c2n[nH]c(=O)o2)c1C` [Example 6, 4-chloro-N-((1S,2S)-2-(6-fluoro-2,3-dimethylphenyl)-1-(5-oxo-4,5-dihydro-1,3,4-oxadiazol-2-yl)propyl)piperidine-1-sulfonamide], the IC50 is 1 to 10 µM.

`COC1CCN(S(=O)(=O)N[C@H](c2n[nH]c(=O)o2)[C@@H](C)c2c(F)ccc(C)c2C)CC1` [Example 126, N-((1S,2S)-2-(6-fluoro-2,3-dimethylphenyl)-1-(5-oxo-4,5-dihydro-1,3,4-oxadiazol-2-yl)propyl)-4-methoxypiperidine-1-sulfonamide]: the IC50 lay in the range of 1 to 10 µM. Consider `Cc1ccc(F)c([C@H](C)[C@H](NS(=O)(=O)N2CC3C(C2)C3(C)C)c2n[nH]c(=O)o2)c1C` (stereo partly drawn) [Example 103, N-((1S,2S)-2-(6-fluoro-2,3-dimethylphenyl)-1-(5-oxo-4,5-dihydro-1,3,4-oxadiazol-2-yl)propyl)-6,6-dimethyl-3-azabicyclo[3.1.0]hexane-3-sulfonamide], for which the IC50 was in the range of 1 to 10 µM. The value for `Cc1ccc(F)c(C(C)[C@H](NS(=O)(=O)N2CCC3(CC2)OCc2ccccc23)c2n[nH]c(=O)o2)c1C` (stereo partly drawn) [Example 73, N-((1S)-2-(6-fluoro-2,3-dimethylphenyl)-1-(5-oxo-4,5-dihydro-1,3,4-oxadiazol-2-yl)propyl)-3H-spiro[isobenzofuran-1,4′-piperidine]-1′-sulfonamide] was 0.1 to 1 µM. Consider `Cc1ccc(F)c([C@@H](C)[C@H](NS(=O)(=O)N2CCC(c3c[nH]c4ccccc34)CC2)c2n[nH]c(=O)o2)c1C` [Example 68, N-((1S,2R)-2-(6-fluoro-2,3-dimethylphenyl)-1-(5-oxo-4,5-dihydro-1,3,4-oxadiazol-2-yl)propyl)-4-(1H-indol-3-yl)piperidine-1-sulfonamide], for which the IC50 was in the range of 1 to 10 µM. `CC(=O)[C@@H]1CCCCN1S(=O)(=O)N[C@H](c1n[nH]c(=O)o1)[C@H](C)c1c(F)ccc(C)c1C` [Example 17, (S)-2-acetyl-N-((1S,2R)-2-(6-fluoro-2,3-dimethylphenyl)-1-(5-oxo-4,5-dihydro-1,3,4-oxadiazol-2-yl)propyl)piperidine-1-sulfonamide]: the IC50 lay in the range of 10 to 100 µM. The value for `CC(=O)[C@@H]1CCCCN1S(=O)(=O)N[C@H](c1n[nH]c(=O)o1)[C@@H](C)c1c(F)ccc(C)c1C` [Example 18, (S)-2-acetyl-N-((1S,2S)-2-(6-fluoro-2,3-dimethylphenyl)-1-(5-oxo-4,5-dihydro-1,3,4-oxadiazol-2-yl)propyl)piperidine-1-sulfonamide] was 1 to 10 µM. The value for `COCC1CCCN(S(=O)(=O)N[C@H](c2n[nH]c(=O)o2)[C@@H](C)c2c(F)ccc(C)c2C)C1` (stereo partly drawn) [Example 130, N-((1S,2S)-2-(6-fluoro-2,3-dimethylphenyl)-1-(5-oxo-4,5-dihydro-1,3,4-oxadiazol-2-yl)propyl)-3-(methoxymethyl)piperidine-1-sulfonamide] was 1 to 10 µM; that for `Cc1ccc(F)c(C(C)[C@H](NS(=O)(=O)N2CCC(O)(C(F)(F)F)CC2)c2n[nH]c(=O)o2)c1C` (stereo partly drawn) [Example 89, N-((1S)-2-(6-fluoro-2,3-dimethylphenyl)-1-(5-oxo-4,5-dihydro-1,3,4-oxadiazol-2-yl)propyl)-4-hydroxy-4-(trifluoromethyl)piperidine-1-sulfonamide] was 0.1 to 1 µM.
